From ChEMBL document CHEMBL1148271, “3-(2-pyrrolidin-1-ylethyl)-5-(1,2,3,6-tetrahydropyridin-4-yl)-1H-indole derivatives as high affinity human 5-HT(1B/1D) ligands” (Bioorg Med Chem Lett, 2004)

Assays:
[1] = biological target: 5-hydroxytryptamine receptor 1B (Homo sapiens, UniProt P28222); assay: Binding affinity was evaluated at the cloned human 5-hydroxytryptamine 1B receptor
[2] = biological target: 5-hydroxytryptamine receptor 1D (Homo sapiens, UniProt P28221); assay: Binding affinity was evaluated at the cloned human 5-hydroxytryptamine 1D receptor
5-hydroxytryptamine receptor 1D, sequence (P28221 whole entry): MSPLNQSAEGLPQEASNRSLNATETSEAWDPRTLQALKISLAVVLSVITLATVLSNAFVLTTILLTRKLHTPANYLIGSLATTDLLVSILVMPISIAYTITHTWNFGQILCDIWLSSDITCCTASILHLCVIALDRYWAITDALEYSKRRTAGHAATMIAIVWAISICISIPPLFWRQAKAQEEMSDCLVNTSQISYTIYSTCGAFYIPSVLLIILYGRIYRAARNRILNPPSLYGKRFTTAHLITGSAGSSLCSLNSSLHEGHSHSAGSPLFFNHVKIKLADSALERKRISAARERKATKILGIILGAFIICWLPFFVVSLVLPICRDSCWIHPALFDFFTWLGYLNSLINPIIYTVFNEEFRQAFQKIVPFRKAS

[3] = biological target: Serotonin 1 receptors; 5-HT1B & 5-HT1D (Homo sapiens) (UniProt P28222+P28221); assay: Binding affinity ratio was evaluated (5-HT1B / 5-HT1D receptor); format: protein assay

5-hydroxytryptamine receptor 1B, sequence (P28222 whole entry): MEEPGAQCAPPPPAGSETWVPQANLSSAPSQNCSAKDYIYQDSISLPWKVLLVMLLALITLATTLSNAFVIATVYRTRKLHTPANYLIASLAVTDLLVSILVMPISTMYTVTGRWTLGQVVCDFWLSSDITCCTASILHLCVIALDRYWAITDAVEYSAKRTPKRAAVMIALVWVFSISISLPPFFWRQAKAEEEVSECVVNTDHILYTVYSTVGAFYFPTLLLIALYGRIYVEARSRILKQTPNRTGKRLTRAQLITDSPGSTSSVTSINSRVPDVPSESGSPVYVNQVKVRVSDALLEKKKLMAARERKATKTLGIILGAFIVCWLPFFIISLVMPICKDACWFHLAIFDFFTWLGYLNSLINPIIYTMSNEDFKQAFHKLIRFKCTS

Row | Structure (SMILES) | Ki [1] [nM] | Ki [2] [nM] | Ratio [3]
1 | Cc1ccc(S(=O)(=O)N2CC=C(c3ccc4[nH]cc(CCN5CCCC5)c4c3)CC2)cc1 | 140 | 12 | 12
2 | O=S(=O)(c1cccc2ccccc12)N1CC=C(c2ccc3[nH]cc(CCN4CCCC4)c3c2)CC1 | 410 | 27 | 15
3 | CN(C)CCc1c[nH]c2ccc(C3=CCN(C)CC3)cc12 |  |  | 76
4 | O=S(=O)(c1ccccc1)N1CC=C(c2ccc3[nH]cc(CCN4CCCC4)c3c2)CC1 | 440 | 21 | 21
5 | COc1ccc(S(=O)(=O)N2CC=C(c3ccc4[nH]cc(CCN5CCCC5)c4c3)CC2)cc1 | 140 | 11 | 13
6 | O=C(Nc1cccc2ccccc12)N1CC=C(c2ccc3[nH]cc(CCN4CCCC4)c3c2)CC1 | 65 | 8.8 | 7.6
7 | C1=C(c2ccc3[nH]cc(CCN4CCCC4)c3c2)CCNC1 | 760 | 74 | 10
8 | O=S(=O)(c1ccc(Cl)cc1)N1CC=C(c2ccc3[nH]cc(CCN4CCCC4)c3c2)CC1 | 110 | 9.3 | 12

Results, then the molecule that gave them:

Row | Ki [1] [nM] | Ki [2] [nM] | Ratio [3] | Structure (SMILES)
9 | 44 | 7.8 | 5.6 | COc1ccc(NC(=O)N2CC=C(c3ccc4[nH]cc(CCN5CCCC5)c4c3)CC2)cc1
10 | 64 | 29 | 2.2 | O=C(NC12CC3CC(CC(C3)C1)C2)N1CC=C(c2ccc3[nH]cc(CCN4CCCC4)c3c2)CC1
11 | 58 | 6.2 | 9.3 | COc1ccc(NC(=S)N2CC=C(c3ccc4[nH]cc(CCN5CCCC5)c4c3)CC2)cc1
12 | 170 | 29 | 5.9 | S=C(NC12CC3CC(CC(C3)C1)C2)N1CC=C(c2ccc3[nH]cc(CCN4CCCC4)c3c2)CC1
